Active and inactive are the calls of the source.
Assays:
cells [1] = assay: cells
[2] = biological target: T1, Oxysterols receptor LXR-beta (Homo sapiens, UniProt P55055); type: functional, cell-based;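 also: Cell-based luminescence dose-response assay of agonist activity at LXR, run as a confirmatory counterscreen to a daf-12 agonist screen; HEK293 cells with Gal4-LXR fusion and GAL4-driven luciferase reporter; agonist potency from rising luciferase signal of a Gal4-LXR reporter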
T1 sequence (P55055 whole entry): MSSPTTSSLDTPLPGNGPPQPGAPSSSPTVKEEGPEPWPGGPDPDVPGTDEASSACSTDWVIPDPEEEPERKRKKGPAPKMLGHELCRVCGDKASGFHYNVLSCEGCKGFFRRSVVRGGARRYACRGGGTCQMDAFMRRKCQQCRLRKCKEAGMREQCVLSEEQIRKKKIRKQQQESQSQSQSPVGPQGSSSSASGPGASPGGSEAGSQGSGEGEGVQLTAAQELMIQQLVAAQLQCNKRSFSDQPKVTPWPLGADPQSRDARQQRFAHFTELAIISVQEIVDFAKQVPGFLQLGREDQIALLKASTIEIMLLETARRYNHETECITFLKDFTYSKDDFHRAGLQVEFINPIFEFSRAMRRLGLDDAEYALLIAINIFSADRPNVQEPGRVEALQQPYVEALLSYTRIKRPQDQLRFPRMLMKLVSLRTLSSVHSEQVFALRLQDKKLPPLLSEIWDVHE

Kallikrein-7 = Kallikrein-7 (Homo sapiens, UniProt P49862); assay: Fluorescence Intensity-based biochemical primary high throughput dose response assay to identify activators of kallikrein-7 (K7) zymogen.
Estrogen receptor beta [3] = biological target: T2, Estrogen receptor beta (Homo sapiens, UniProt Q92731);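 also: recombinant ER-beta bound to coactivator SRC1 peptide in presence of estradiol agonist; inhibitors block coactivator peptide binding and lower the FRET signal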
Estrogen receptor beta [4] = biological target: T2, Estrogen receptor beta; assay: blockers of SRC-3 recruitment to ERβ – biochemical, ELISA, streptavidin-HRP readout, orthogonal assay, confirmation (AID 1060)
[5] = viability loss in HeLa cells – cytotoxicity control for MgcRacGAP inhibitor project, dose response (AID 624300); type: functional
[6] = biological target: Glucose-6-phosphate 1-dehydrogenase (Homo sapiens, UniProt P11413); assay: inhibition of Homo sapiens G6PD, dose series – biochemical, fluorescence, selectivity assay for P. falciparum G6PD inhibitor project, dose response (AID 504792); type: functional
[7] = biological target: T3, Rac GTPase-activating protein 1 (Homo sapiens, UniProt Q9H0H5); assay: blockers of MgcRacGAP-driven Rac1 GTP hydrolysis – biochemical, ADP Hunter fluorescence, primary and confirmatory, confirmation (AID 624330); type: functional
T3 sequence (Q9H0H5 whole entry): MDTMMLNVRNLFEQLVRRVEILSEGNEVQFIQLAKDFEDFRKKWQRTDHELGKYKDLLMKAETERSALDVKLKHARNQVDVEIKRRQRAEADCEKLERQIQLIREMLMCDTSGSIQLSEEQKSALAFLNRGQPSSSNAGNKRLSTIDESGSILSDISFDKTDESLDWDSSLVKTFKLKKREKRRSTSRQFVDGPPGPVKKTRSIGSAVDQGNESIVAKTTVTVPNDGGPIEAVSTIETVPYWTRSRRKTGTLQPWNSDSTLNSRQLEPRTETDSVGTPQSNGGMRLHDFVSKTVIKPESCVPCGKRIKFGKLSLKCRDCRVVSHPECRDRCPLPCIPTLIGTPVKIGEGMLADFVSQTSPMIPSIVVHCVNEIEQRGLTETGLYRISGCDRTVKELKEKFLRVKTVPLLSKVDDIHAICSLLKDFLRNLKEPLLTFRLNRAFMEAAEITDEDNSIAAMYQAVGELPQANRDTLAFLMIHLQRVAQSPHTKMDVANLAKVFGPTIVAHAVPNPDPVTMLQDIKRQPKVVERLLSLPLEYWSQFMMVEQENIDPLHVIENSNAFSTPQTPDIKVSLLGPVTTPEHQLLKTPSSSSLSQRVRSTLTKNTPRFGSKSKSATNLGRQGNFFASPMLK

Galanin receptor type 3 = biological target: T4, Galanin receptor type 3 (Homo sapiens, UniProt O60755); assay: Fluorescence-based cell-based primary high throughput dose response assay to identify antagonists of the Galanin Receptor 3 (GalR3).; type: functional
T4 sequence (O60755 whole entry): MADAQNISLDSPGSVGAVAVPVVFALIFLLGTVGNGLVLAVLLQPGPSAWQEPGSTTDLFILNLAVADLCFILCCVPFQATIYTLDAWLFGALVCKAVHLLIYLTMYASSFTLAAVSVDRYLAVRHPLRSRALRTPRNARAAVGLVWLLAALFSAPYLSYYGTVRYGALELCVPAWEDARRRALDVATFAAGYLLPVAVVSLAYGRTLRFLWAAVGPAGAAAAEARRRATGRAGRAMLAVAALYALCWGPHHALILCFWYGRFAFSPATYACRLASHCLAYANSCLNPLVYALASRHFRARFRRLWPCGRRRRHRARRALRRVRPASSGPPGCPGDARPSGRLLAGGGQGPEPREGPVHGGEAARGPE

cells [8] = type: functional, cell-based; conditions: HEK-CNG
Ephrin type-A receptor 4 = Ephrin type-A receptor 4 (Mus musculus, UniProt Q03137); assay: EphA4 ligand-binding antagonists – biochemical, colorimetric, mouse EphA4, primary screen (AID 689); type: functional
H9c2 = assay: cells; type: functional, cell-based; conditions: Rattus norvegicus, H9c2, Myocardium
[9] = biological target: Luciferin 4-monooxygenase (Photinus pyralis, UniProt P08659); assay: inhibition of purified Photinus pyralis luciferase – biochemical, luminescence, dose response (AID 1891)
[10] = Luminescence Cell-Based Dose Confirmation HTS to Identify Inhibitors of Platelet Dense Granule Release. [Related pubchem assays: 1663 (Primary HTS), 1678 (Summary of Project)]; type: functional
[11] = biological target: T5, Heat shock factor protein 1 (Mus musculus, UniProt P38532); assay: enhancement of HSF1-driven luciferase signal – cell-based, NIH3T3, luminescence, dose retest, confirmation (AID 435004); type: functional;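 also: stress induced by proteasome inhibitor MG132 added 30 min after compound; luciferase reporter driven by HSF1 response element in NIH3T3 cells; actives raise luminescence as potentiators of the MG132 stress response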
T5 sequence (P38532 whole entry): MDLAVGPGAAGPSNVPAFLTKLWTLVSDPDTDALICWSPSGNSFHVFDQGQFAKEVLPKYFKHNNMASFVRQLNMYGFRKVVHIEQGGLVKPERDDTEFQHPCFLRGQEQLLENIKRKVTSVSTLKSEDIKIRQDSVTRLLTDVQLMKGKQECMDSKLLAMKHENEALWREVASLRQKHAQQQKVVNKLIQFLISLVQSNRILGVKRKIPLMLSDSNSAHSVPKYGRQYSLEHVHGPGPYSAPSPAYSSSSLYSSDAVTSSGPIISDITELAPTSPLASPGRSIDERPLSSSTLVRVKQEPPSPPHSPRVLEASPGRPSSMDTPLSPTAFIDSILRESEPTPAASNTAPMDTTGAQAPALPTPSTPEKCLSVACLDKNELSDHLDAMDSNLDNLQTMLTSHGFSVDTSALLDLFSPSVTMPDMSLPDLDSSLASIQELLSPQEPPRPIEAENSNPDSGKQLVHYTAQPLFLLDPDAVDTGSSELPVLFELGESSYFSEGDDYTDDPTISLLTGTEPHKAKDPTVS

[12] = biological target: Protein-tyrosine kinase 2-beta (Homo sapiens, UniProt Q14289);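 also: potency of inhibitors of PYK2 kinase phosphorylation of poly-GT substrate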
[13] = biological target: T6, Carboxy-terminal domain RNA polymerase II polypeptide A small phosphatase 1 (Homo sapiens, UniProt Q9GZU7); assay: CTDSP1 inhibitors, concentration-response, biochemical, absorbance readout, ultra-high-throughput screen actives (AID 540297); type: functional
T6 sequence (Q9GZU7 whole entry): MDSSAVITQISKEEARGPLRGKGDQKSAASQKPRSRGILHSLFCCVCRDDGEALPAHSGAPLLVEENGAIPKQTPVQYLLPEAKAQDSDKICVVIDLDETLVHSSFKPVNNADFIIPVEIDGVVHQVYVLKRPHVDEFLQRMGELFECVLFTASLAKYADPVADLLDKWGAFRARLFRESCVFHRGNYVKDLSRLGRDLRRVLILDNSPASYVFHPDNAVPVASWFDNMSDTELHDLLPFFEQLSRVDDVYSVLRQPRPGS

Caspase-6 = biological target: T7, Caspase-6 (Homo sapiens, UniProt P55212); assay: inhibition of CASP6 peptide cleavage – biochemical, VEID-R110 fluorescence, cherry-pick, dose response (AID 720632)
T7 sequence (P55212 whole entry): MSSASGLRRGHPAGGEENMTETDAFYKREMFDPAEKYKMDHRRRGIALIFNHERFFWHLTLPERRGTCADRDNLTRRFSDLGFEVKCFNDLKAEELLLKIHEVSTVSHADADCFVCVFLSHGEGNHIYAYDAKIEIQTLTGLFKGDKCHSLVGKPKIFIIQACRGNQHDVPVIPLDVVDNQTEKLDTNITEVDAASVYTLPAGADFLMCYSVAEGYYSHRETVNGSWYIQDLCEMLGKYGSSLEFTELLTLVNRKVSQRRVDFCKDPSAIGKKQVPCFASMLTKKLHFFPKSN

[14] = IC50 of Artemis nuclease activity blockers – biochemical, fluorescence intensity, dose response (AID 720701); type: functional;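 also: Artemis endonuclease enzyme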
[15] = biological target: T8, Long-chain-fatty-acid--AMP ligase FadD28 (Mycobacterium tuberculosis, UniProt P9WQ59); assay: Fluorescence polarization aasay to screen for inhibitors that compete for the binding of FadD28 to a bisubstrate Measured in Biochemical System Using Plate Reader - 2147-01_Inhibitor_Dose_CherryPick_Activity.; type: functional, Mycobacterium tuberculosis H37Rv
T8 sequence (P9WQ59 whole entry): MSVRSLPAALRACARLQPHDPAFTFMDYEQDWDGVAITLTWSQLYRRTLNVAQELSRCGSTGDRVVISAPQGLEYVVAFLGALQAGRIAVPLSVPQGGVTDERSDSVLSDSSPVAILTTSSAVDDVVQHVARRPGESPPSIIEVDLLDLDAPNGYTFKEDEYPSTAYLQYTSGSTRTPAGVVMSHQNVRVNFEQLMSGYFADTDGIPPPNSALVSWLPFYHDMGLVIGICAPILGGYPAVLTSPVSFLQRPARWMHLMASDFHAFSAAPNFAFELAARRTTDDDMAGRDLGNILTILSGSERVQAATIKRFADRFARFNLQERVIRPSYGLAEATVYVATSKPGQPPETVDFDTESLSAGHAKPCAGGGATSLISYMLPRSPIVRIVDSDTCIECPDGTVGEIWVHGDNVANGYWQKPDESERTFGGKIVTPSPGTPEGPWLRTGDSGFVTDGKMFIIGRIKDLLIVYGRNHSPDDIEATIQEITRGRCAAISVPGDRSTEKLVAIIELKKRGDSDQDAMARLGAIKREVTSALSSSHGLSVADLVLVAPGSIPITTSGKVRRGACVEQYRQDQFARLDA

[16] = toxicity toward immortalized ovarian surface epithelium – cell-based, plate reader, dry powder samples, cytotoxicity control for PAX8 inhibitor project, dose response (AID 743045); type: functional
[17] = IGROV1 cell killing – plate reader, dry powder samples, PAX8 inhibitor project, dose response (AID 743043); type: functional, cell-based; conditions: IGROV-1
[18] = OVCAR-3 cell viability loss – plate reader, dry powder samples, PAX8 inhibitor project, dose response (AID 743044); type: functional, cell-based
[19] = OVCAR8 cell viability loss – plate reader, dry powder samples, PAX8 project, dose response (AID 743197); type: functional, cell-based; conditions: OVCAR-8
Paired box protein Pax-8 = Paired box protein Pax-8 (Homo sapiens, UniProt Q06710); assay: PAX8 transcriptional activity inhibition in RMG-I – RMG-I cells, luciferase, cherry-pick, dose response (AID 687027); type: functional, cell-based;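 also: luciferase reporter driven by Pax8 target thyroperoxidase promoter measured by SteadyGlo luminescence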
Paired box protein Pax-8, sequence (Q06710 whole entry): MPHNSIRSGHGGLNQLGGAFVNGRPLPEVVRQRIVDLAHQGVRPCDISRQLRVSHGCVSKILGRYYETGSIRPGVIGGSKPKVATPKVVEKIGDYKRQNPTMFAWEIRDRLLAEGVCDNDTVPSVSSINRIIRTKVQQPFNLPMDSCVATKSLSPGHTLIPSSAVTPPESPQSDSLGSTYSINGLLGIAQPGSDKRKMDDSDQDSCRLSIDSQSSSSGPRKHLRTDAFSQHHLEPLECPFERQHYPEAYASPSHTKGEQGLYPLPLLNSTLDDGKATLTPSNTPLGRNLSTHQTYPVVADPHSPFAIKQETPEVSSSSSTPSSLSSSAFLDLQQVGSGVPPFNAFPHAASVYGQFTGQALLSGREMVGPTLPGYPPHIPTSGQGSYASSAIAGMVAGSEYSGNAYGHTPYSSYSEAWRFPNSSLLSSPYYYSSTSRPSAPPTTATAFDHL

Ephrin type-A receptor 4, sequence (Q03137 whole entry): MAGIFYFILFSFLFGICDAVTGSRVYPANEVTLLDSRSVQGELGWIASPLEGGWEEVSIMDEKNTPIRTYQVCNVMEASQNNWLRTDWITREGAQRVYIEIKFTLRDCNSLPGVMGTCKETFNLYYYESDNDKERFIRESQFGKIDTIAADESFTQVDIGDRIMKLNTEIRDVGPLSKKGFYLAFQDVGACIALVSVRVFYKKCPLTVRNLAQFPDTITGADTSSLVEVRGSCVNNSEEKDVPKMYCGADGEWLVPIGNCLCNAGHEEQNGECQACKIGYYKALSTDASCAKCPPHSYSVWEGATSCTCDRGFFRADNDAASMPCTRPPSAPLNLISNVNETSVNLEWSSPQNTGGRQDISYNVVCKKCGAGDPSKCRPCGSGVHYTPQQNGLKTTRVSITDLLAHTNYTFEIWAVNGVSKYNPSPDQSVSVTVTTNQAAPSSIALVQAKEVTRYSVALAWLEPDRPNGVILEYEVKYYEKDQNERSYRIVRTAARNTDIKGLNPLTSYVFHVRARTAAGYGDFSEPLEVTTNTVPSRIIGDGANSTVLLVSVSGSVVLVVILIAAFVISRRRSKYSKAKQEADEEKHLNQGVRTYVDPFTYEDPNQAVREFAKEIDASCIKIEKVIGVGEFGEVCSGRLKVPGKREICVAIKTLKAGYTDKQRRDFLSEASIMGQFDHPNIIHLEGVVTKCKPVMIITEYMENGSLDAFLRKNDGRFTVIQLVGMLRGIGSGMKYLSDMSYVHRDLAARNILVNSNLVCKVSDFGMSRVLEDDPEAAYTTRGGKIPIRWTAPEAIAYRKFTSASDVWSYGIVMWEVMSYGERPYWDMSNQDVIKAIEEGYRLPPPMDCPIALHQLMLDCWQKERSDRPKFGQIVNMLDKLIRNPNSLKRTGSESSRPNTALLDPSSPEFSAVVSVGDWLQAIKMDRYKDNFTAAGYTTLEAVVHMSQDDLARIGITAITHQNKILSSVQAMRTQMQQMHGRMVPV
T2 sequence (Q92731 whole entry): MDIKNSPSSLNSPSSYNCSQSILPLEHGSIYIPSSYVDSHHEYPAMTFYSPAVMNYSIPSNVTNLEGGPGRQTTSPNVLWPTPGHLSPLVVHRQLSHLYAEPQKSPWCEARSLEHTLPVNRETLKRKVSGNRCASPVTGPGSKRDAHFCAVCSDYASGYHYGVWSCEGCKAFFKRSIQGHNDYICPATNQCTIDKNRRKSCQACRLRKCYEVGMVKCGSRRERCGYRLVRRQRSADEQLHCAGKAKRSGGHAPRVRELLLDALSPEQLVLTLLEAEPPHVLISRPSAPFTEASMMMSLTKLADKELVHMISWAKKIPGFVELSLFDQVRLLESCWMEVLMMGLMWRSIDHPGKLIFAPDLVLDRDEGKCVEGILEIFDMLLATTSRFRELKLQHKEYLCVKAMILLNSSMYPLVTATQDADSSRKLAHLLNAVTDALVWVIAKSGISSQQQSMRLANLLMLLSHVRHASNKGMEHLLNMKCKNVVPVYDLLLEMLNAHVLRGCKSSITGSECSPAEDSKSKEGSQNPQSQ
Protein-tyrosine kinase 2-beta, sequence (Q14289 whole entry, the tested form may be a part): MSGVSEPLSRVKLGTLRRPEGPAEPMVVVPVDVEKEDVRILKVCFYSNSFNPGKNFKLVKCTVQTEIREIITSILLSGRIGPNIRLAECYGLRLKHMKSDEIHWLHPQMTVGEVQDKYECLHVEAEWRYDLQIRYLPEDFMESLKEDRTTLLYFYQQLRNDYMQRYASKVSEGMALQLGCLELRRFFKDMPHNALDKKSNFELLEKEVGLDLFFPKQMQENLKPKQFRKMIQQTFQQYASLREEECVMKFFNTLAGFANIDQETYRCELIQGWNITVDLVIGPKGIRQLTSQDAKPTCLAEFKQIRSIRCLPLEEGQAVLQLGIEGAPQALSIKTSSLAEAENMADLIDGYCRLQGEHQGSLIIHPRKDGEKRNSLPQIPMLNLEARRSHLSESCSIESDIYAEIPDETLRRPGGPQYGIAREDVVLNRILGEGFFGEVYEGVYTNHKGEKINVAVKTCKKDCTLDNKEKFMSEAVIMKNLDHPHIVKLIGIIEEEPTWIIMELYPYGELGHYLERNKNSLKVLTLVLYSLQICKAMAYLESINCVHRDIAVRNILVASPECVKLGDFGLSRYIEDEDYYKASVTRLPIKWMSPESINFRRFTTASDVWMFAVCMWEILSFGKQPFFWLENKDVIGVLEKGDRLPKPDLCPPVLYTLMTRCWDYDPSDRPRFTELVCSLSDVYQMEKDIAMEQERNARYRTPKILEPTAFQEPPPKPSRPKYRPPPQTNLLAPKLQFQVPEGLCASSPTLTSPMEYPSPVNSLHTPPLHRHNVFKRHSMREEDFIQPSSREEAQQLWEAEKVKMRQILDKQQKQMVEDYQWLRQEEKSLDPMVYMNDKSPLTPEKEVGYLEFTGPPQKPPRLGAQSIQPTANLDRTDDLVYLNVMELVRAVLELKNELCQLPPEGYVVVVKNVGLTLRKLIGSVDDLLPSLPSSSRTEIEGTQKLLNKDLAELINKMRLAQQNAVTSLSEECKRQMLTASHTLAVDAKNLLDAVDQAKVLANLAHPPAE
Kallikrein-7, sequence (P49862 whole entry): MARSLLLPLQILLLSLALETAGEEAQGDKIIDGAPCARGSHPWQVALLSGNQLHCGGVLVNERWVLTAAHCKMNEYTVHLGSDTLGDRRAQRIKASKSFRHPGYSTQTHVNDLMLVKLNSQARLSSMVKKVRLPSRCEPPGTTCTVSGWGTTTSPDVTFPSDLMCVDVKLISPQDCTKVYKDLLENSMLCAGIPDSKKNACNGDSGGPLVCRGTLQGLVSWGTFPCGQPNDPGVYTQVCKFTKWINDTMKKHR
Luciferin 4-monooxygenase, sequence (P08659 whole entry): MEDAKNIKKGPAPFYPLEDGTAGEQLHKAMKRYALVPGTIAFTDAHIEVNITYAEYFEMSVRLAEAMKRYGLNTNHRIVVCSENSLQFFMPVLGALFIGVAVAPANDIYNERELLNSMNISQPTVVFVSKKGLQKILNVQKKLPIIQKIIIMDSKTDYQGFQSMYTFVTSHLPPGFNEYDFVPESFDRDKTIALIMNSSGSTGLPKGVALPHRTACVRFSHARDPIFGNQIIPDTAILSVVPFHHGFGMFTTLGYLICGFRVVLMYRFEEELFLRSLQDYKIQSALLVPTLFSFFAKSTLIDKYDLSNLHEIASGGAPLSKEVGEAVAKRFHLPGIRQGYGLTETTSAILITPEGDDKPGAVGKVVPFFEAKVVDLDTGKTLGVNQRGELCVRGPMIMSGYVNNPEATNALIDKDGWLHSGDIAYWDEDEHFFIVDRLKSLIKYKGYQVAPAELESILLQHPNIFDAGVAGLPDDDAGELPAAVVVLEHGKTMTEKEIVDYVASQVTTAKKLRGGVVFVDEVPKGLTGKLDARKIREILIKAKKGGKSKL
Glucose-6-phosphate 1-dehydrogenase, sequence (P11413 whole entry): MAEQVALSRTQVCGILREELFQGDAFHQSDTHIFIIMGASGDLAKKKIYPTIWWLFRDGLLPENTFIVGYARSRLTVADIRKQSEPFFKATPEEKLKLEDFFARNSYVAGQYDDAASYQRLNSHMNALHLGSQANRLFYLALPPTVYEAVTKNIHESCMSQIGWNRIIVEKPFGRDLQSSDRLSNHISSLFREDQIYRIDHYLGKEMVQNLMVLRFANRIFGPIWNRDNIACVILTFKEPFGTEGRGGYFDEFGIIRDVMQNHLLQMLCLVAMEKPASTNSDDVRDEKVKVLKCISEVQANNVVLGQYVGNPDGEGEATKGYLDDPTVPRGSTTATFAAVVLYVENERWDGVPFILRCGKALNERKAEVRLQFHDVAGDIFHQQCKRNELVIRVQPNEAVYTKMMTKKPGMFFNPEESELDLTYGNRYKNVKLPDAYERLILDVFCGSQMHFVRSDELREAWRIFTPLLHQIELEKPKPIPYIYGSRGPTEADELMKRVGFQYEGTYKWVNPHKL

## CC1CCCCN1C(=O)CSc1nnc(-c2ccccc2O)o1 (centres undefined)
Cells [1]
  EC50: > 67.5 µM (inactive)
[2]
  EC50: > 67.5 µM (inactive)

## CCC(NC(=O)CCc1c(C)c2cc3c(C)c(C)oc3cc2oc1=O)C(=O)N[C@@H](Cc1ccccc1)C(=O)O (some centres undefined)
Kallikrein-7
  EC50: > 69.5 µM (inactive)

## CC(=O)NC12CC3CC(C1)CC(C(=O)OCC(=O)Nc1ncc(Cl)c(C)c1Cl)(C3)C2
Estrogen receptor beta [3]
  IC50: 9.36 µM (active)
Estrogen receptor beta [4]
  IC50: < 23 nM (not active)

## COc1cccc(CNc2ccc3[nH]c(O)nc3c2)c1OCc1ccccc1Cl
[5]
  CC50: 100 µM (active)
[6]
  IC50: > 80 µM (inactive)
[7]
  IC50: 69 µM (active)

## O=[N+]([O-])c1[nH]c2nc(O)nc-2cc1Cl
Galanin receptor type 3
  IC50: 16.7 µM (inactive)
Cells [8]
  EC50: > 29.9 µM (inactive)

## Cc1ccc(S(=O)(=O)/C(C#N)=C/c2c(N3CCOCC3)nc3ccccn3c2=O)cc1
Ephrin type-A receptor 4
  IC50: > 100 µM (not active)

## N#CC(c1nc2ccccc2nc1N1CCCC1)S(=O)(=O)c1cccs1 (centres undefined)
Ephrin type-A receptor 4
  IC50: > 100 µM (not active)
H9c2
  IC50: > 79 µM (inactive)

## Cc1ccc(N=Nc2cc(C)ccc2N)cc1
Cells [1]
  EC50: > 67.5 µM (inactive)
[2]
  EC50: > 67.5 µM (inactive)
[9]
  EC50: 149 nM (active)
[10]
  EC50: 3.15 µM (active)

## Cc1ccc(-c2nc(O)c3sccc3n2)cc1
Cells [1]
  EC50: > 67.5 µM (inactive)
[2]
  EC50: > 67.5 µM (inactive)

## CCOC(=O)c1sc2c(c1C)C(c1cccs1)C1=C(O)CCCC1=N2 (centres undefined)
[11]
  EC50: 80.5 µM (active)
[12]
  IC50: > 69.5 µM (not active)

## CC1CCC2(CC1)NC(=O)N(CC(=O)Nc1sc3c(c1C(N)=O)CCC3)C2=O (centres undefined)
[13]
  IC50: 3.44 µM (active)
Caspase-6
  AC50: 10.9 µM (active)

## CCSC1=N/C(=C\c2ccc(-c3ccccc3[N+](=O)[O-])o2)C(=O)S1
Ephrin type-A receptor 4
  IC50: > 100 µM (not active)
[14]
  IC50: 0.967 µM (active)

## Cc1ccc(NC(=O)CNc2ccccc2N2CCCC2=O)cc1S(=O)(=O)N1CCCCC1
[15]
  AC50: 48.3 µM (active)

## Nc1c(Br)cc(Br)c2c1nc(O)c1ccccc12
Caspase-6
  AC50: 18.1 µM (active)

## C[C@@H]1CN([C@H](C)CO)C(=O)c2cc(NC(=O)Nc3ccc(C(F)(F)F)cc3)ccc2O[C@@H](C)CCCCO[C@H]1CN(C)C(=O)c1ccccc1
[16]
  AC50: 37.5 µM (active)
[17]
  AC50: 35.6 µM (active)
[18]
  AC50: 33.2 µM (active)
[19]
  AC50: 50.7 µM (active)
Paired box protein Pax-8
  AC50: 12.1 µM (active)

## CC(C)(C)c1cc(/C=N/NC(=O)Cc2nc3ccccc3[nH]2)cc(C(C)(C)C)c1O
[14]
  IC50: > 20 µM (inactive)

## O=C(O)c1ccc(N/N=C/c2cc(Br)cs2)cc1
[15]
  AC50: 32 µM (inactive)

Reference: ChEMBL document CHEMBL1201862, “PubChem BioAssay data set” (2004)
